Assay results: patent US7449480B2, “Small molecule inhibitors of HER2 expression” (Baylor College of Medicine, priority 2002, dated 2008)
“Also recorded” adds a separate entry of the source.

Columns and labels:
BT474 cells = assay: Animal study: BT474-derived tumors in mammary fat pads of nude mice; type: in vivo; conditions: 20 mg/kg daily intraperitoneal, 5 consecutive days each week for two weeks
Description: Breast cancer cell lines derived from BT474 after one round (BT474M1) or two rounds (BT474M2) of tumorigenic selection were used. 5×10^6 cells were injected with Matrigel into mammary fat pads of nude mice. Two tumors were inoculated for each animal and each treatment group contained 5 animals. Five weeks after inoculation when the tumors were well established (about 100 mm^3 in average) the treatment started (day 0 in the figure). Each mouse received adamanolol (7QH2) at a daily dose of 20 mg/kg through intraperitoneal injection for 5 consecutive days in each week for two weeks. Tumor volumes were measured every three days. The percentile of the tumor volume related to the initial volume at day 0 was plotted for each time point. Adamanolol is a potent tumor growth inhibitor of HER-2/neu-overexpressing cancer cells in vivo.

Her2 = Her2 protein expression by western blot of cell lysates; type: cell-based, human; conditions: SK-BR3 cells, 7.3 μM, 24 hrs; α-tubulin not reduced; listed as adamanolol
Description: Sur-2 is a human homolog of […] elegans Sur-2, a protein of unknown function whose mutations suppress the phenotype of an activated ras mutation (Singh et al., 1995), and it has been linked to the transcription-activating function of the adenovirus E1A protein and the Elk-1 transcription factor. […] To test this, we designed a cell-permeable peptide that binds Sur-2 (referred to as TAT-ESX129-145). The design takes advantage of the binding affinity of ESX129-145 and the cell internalization property of the 11-aa peptide derived from the HIV TAT protein. We first examined whether TAT ESX129-145 reduces endogenous expression of the Her2 gene in three Her2-overexpressing breast cancer cell lines, SK-BR-3, MDA-MB-453, and […] (FIG. 4). Cells were incubated in the presence or absence of TAT-ESX129-145, and the protein levels of Her2 were examined by Western blot analyses of normalized amounts of cell lysates.
Her2-overexpressing SK-BR3 cells were treated by 7.3 μM of adamanolol for 24 hrs, and whole cell lysates were analyzed by western blots. […]
SK-BR3 cells were treated by 7 μM of wrenchnolol for 24 hrs, and whole cell lysates were analyzed by western blots. […]

[1] = test system: SK-BR3 breast cancer cells; assay: Cell viability assay (WST-1) in SK-BR3 breast cancer cells; type: cell-based, human; conditions: for IC50: Homo sapiens, SK-BR-3, 48 hrs incubation, WST-1; for ability to kill SK-BR3 cells (biological activity, in words): compared with adamanolol
Description: SK-BR3 breast cancer cells were plated on 96-well plates at density of 5×10^3 cells/well and maintained for 24 hrs. The cells were then incubated with varied concentrations of each compound for 48 hrs, followed by addition of Premix WST-1 Solution (Takara). Cell viability was estimated by measuring absorbance at 450 nm after 1 hr with a SPECTRAmax microplatereader.

VP16 activation domain = assay: Transcription reporter gene assay (GAL4 fusion, SEAP), VP16 activation domain; type: cell-based; conditions: HEK293Tag cells, 24 hour incubation with adamanolol
Description: (§1) Mammalian expression vectors each encoding the activation domain of ESX, VP16, or NFκBp65 fused with the GAL4 DNA-binding domain were used. Each expression construct was co-transfected to HEK293Tag human kidney cells together with a reporter plasmid in which the production of secreted alkaline phosphatase (SEAP) is under control of an IL-2 promoter carrying five GAL4 binding sites. After a 24 hour incubation in the presence or absence of adamanolol, an aliquot of the culture was assayed for SEAP activity. The total amounts of transfected DNA were normalized.
(§2) mammalian expression vectors, each encoding the activation domain of ESX, VP16, or NF-κB p65 fused with the GAL4 DNA-binding domain (amino acids 1-94), were used. Each expression construct was co-transfected to HEK293Tag human kidney cells together with a reporter plasmid in which the production of secreted alkaline phosphatase (SEAP) is under control of an IL2 promoter carrying five GAL4 binding sites. After 10-hr incubation with wrenchnolol (20 μM), an aliquot of the culture was assayed for SEAP activity.

ESX-Sur-2 interaction = target: T1, ESX-Sur-2 interaction (Homo sapiens, UniProt Q9ULK4); assay: Inhibition of the ESX-Sur-2 interaction in vitro (fluorescence of FITC-ESX129-145 with GST-Sur2352-625); type: binding; conditions: for IC50: FITC-ESX129-145 (152 nM), GST-Sur2352-625 (212 nM); for inhibition of the ESX-Sur-2 interaction in vitro (in words): in vitro fluorescence assay
T1 construct: made in house
T1 sequence (Q9ULK4 352-625): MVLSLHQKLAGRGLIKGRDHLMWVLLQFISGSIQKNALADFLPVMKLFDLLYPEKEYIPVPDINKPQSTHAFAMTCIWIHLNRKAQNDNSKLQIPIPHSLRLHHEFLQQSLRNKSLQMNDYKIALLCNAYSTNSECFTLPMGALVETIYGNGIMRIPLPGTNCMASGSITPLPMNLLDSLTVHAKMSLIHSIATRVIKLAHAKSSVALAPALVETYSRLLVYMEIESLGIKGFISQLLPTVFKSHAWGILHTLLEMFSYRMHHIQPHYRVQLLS
Description: To monitor the ESX-DRIP130 interaction, we labeled ESX129-145 with fluorescein isothiocyanate (FITC; Pierce) at the Lys144 position and measured its fluorescence spectra upon adding the glutatathione-S′-transferase (GST) fusion of DRIP130352-625. ESX129-145 was synthesized by standard Fmoc chemistry (the NH2 terminus was capped by an acetyl group during the synthesis) and purified by HPLC. The peptide was then coupled with FITC at the Lys144 position in a conjugation buffer (100 mM carbonate-bicarbonate buffer, pH 9) in dark and purified by NAP-5 desalting column (Amersham). The labeled peptide was quantified by UV and visible absorbance.
GST-Sur-2352-625 was expressed and purified. Varied concentrations of the fusion protein were added to FITC-ESX129-145 (10 nM) in phosphate buffered saline containing 2% (v/v) ethanol, and the fluorescence spectra of FITC-ESX129-145 were measured by an ABI LS-50B Fluorescence Spectrometer (Ex: 490 nm). The dissociation constant of the interaction was estimated to be 12 μM through the emission perturbation at 522 nm.
To examine the effects of adamanolol on the interaction in vitro, the ethanol component of the binding buffer was replaced with an ethanolic solution of adamanolol. The fractions of FITC-ESX129-145 (10 nM) bound to 50 μM of GST-Sur-2352-625 were estimated by measuring fluorescence emission at 522 nm. ESX129-145 and pindolol were used as positive and negative controls, respectively.
In another series of derivatives (the R3 substituents in Table 1), the adamantane group of adamanolol was substituted (11a-d). […] The binding fractions were calculated on the basis of fluorescence spectra of FITC-ESX129-145 (152 nM) in presence of GST-Sur2352-625 (212 nM) and varied concentrations of each adamanolol derivative.

ESX activation domain = assay: Transcription reporter gene assay (GAL4 fusion, SEAP), ESX activation domain; type: cell-based, human
Description: as §1, §2

[2] = test system: Her2-positive breast cancer cell lines (SK-BR3, MDA-MB453, and MCF-7); assay: Growth and viability of Her2-positive breast cancer cell lines; type: cell-based, human; conditions: SK-BR3, MDA-MB453, MCF-7, 24 hrs
Description: (§3) In contrast to the Her2-overexpressing cells, MDA-MB-468, a breast cancer cell line with no detectable levels of Her2, was resistant to TAT-ESX129-145 (FIGS. 5A and 5B). […] The effects of TAT-ESX129-145 on an MCF7 cell line stably transfected with the Her2 gene were examined.
(§4) The breast cancer cells were plated on 96-well plates at the density of 5×10^3 cells/well and maintained for 24 hrs. Adamanolol was added to the medium at varied concentrations and incubated for another 24 hrs. Premix WST-1 solution (Takara) was added to each well and incubated for 2 hrs. Cell viability was estimated by measuring absorbance at 450 nm with a SPECTRAmax microplate reader.

MDA-MB468 = assay: Growth and viability of Her2-negative MDA-MB468 cells; type: cell-based, human; conditions: no detectable levels of Her2; 24 hrs
Description: as §3, §4

[3] = Solubility in neutral aqueous solution; type: physicochemical
Description: When the amino group of the handle was protonated, wrenchnolol (7b) and its aminopropyl version (7a) became soluble up to ˜1 mM in neutral aqueous solution. The high water solubility enabled NMR analysis of these molecules in a buffered aqueous solution, and their proton signals were completely assigned through a combination of NOESY, DQF-COSY, and HOHAHA data sets (Table S1).

IC50 [1] [µM] | IC50 (ESX-Sur-2 interaction) [µM] | inhibition of the ESX-Sur-2 interaction in vitro (in words) (ESX-Sur-2 interaction) | SMILES | ability to kill SK-BR3 cells (biological activity, in words) [1] | further results
6.4 ± 1.8 | 15.4 ± 0.3 | inhibits | CC(C)N(CC(O)COc1cccc2[nH]ccc12)C(=O)N1CCC(C2CCN(C(=O)C34CC5CC(CC(C5)C3)C4)CC2)CC1 (stereo not drawn) [Compound 4a, 1′-(adamantane-1-carbonyl)-[4,4′]bipiperidinyl-1-carboxylic acid [2-hydroxy-3-3-(1H-indol-4-yloxy)-propyl]-isopropyl-amide] | – | tumor growth (tumor volume relative to day 0) (BT474 cells): significant growth suppression; expression of Her2 protein (Her2): significantly reduced; also recorded: inhibition of Her2; effect on the VP16 activation domain (VP16 activation domain): little effects; ability of the ESX activation domain to stimulate transcription (ESX activation domain; HEK293Tag cells, 24 hour incubation with adamanolol): impaired; also recorded: selectively inhibits; viability of Her2-positive breast cancer cell lines ([2]; listed as Adamanolol): impaired the viability; viability of Her2-positive breast cancer cell lines ([2]; listed as adamanolol): selectively impairs the cell growth and viability; viability of MDA-MB468 (MDA-MB468): much milder effects
> 100 | > 40 | abolished | O=C(NCC(O)COc1cccc2[nH]ccc12)N1CCC(C2CCN(C(=O)C34CC5CC(CC(C5)C3)C4)CC2)CC1 (stereo not drawn) [Compound 4d] | abolished; also recorded: little activity | ability of the ESX activation domain to activate the reporter gene (ESX activation domain; HEK293 cells, 20 μM, 10-hr incubation): almost no effects; also recorded: little effects
2.7 ± 0.3 | 10 ± 1 | increased | Cc1ccc(S(=O)(=O)n2ccc3c(OCC(O)CN(C(=O)N4CCC(C5CCN(C(=O)C67CC8CC(CC(C8)C6)C7)CC5)CC4)C(C)C)cccc32)cc1 (stereo not drawn) [Compound 5a, N-tosyladamanolol] | increased the potency | –
4.1 ± 0.2 | 15.1 ± 0.8 | – | CC(C)CN(CC(O)COc1cccc2[nH]ccc12)C(=O)N1CCC(C2CCN(C(=O)C34CC5CC(CC(C5)C3)C4)CC2)CC1 (stereo not drawn) [Compound 4b] | – | –
4.7 ± 0.1 | 10.2 ± 1.1 | – | Cc1ccc(S(=O)(=O)n2ccc3c(OCC(O)CN(CCCN)C(=O)N4CCC(C5CCN(C(=O)C67CC8CC(CC(C8)C6)C7)CC5)CC4)cccc32)cc1 (stereo not drawn) [Compound 7a] | – | solubility [3]: ~1000 µM
5 ± 0.3 | 12 ± 0.9 | – | CC(C)N(CC(O)COc1cccc2c1ccn2S(=O)(=O)c1cccc2cccnc12)C(=O)N1CCC(C2CCN(C(=O)C34CC5CC(CC(C5)C3)C4)CC2)CC1 (stereo not drawn) [Compound 5b] | – | –
> 100 | > 40 | abolished | COCC(O)CN(C(=O)N1CCC(C2CCN(C(=O)C34CC5CC(CC(C5)C3)C4)CC2)CC1)C(C)C (stereo not drawn) [Compound 12a] | abolished | –
> 100 | > 40 | almost no ability to block | CC(=O)N1CCC(C2CCN(C(=O)N(CC(O)COc3cccc4[nH]ccc34)C(C)C)CC2)CC1 (stereo not drawn) [Compound 11a] | significant loss of the biological activity | –
11.7 ± 0.1 | 11.9 ± 0.7 | – | CC(C)(C)OC(=O)NCCCN(CC(O)COc1cccc2[nH]ccc12)C(=O)N1CCC(C2CCN(C(=O)C34CC5CC(CC(C5)C3)C4)CC2)CC1 (stereo not drawn) [Compound 4e] | – | –
